# From patent US12064516B2, “Pharmaceutical formulations and uses thereof” (Aldeyra Therapeutics, Inc., priority 2020, dated 2024)
# Where two headings read alike, the source gives them in different places.
# Assay: Pharmacokinetics of compound I-1 in the dog by intravenous, oral gavage and oral capsule routes
# Format: in vivo, beagle dogs
# Settings: for concentration at 0.083 h / concentration at 0.25 h / concentration at 0.5 h / concentration at 1 h / concentration at 2 h / concentration at 4 h / concentration at 8 h / concentration at 12 h / AUC(0-inf) / AUC(0-t) / C0 / clearance / half-life / Vd: male, beagle, dog, plasma; for concentration at 0.083 h / concentration at 0.25 h / concentration at 0.5 h / concentration at 1 h / concentration at 2 h / concentration at 4 h / concentration at 8 h / concentration at 12 h: read-out: Concentration at time point; for Vd: read-out: Vss
# Method: A pharmacokinetic study was conducted to compare the bioavailability of capsule and suspension oral formulations vs. an intravenous formulations.
# The standard curve was prepared from 1 to 2,000 ng/mL. QC samples were prepared at […]. Dilution QCs were prepared at 10-fold dilution. Deuterated (d6) I-1 (compound 1-7) was used as an internal standard. A 50 μL aliquot of sample was added to 150 μL of cold internal standard in acetonitrile to effect protein precipitation. The resulting supernatants were analyzed by LCMS. Diluted sample data was utilized only for over-the-curve results.
# Briefly, 9 male non-naïve beagle dogs were assigned in groups of 3 to 3 dose groups. Group 1 was dosed 3 mg/kg by the intravenous route in a vehicle of 20% sulfobutylether-β-cyclodextrin (SBECD). Group 2 was dosed 10 mg/kg by the oral gavage route in a vehicle of 0.5% methylcellulose (MC). Group 3 was dosed with 100 mg capsules.
# The I-1 100 mg capsules are manufactured as a non-sterile spray dried, granulated powder blend. The blend is then filled into capsules for oral delivery. The capsules are packaged in high-density polyethylene bottles. The quantitative composition of the I-1 100 mg capsule is presented above in Table B.
# Procedure: (PO) gavage: formulations will be administered via a rubber oral gavage tube followed by a 10 mL flush with drinking water. (PO) tablet: tablets will be administered orally by placing the tablet in the back of the throat followed by a 10 mL flush with water.
# Frequency: Pre-dose, 5, 15, 30 min, 1, 2, 4, 8, and 12 hrs post-dose (IV); pre-dose, 15, 30 min, 1, 2, 4, 8, and 12 hrs post-dose (PO by gavage and PO by capsule).
# Blood collection: each blood sample will be collected from the dog's jugular vein or other accessible vein via direct venepuncture, placed into a pre-labeled tube containing K2EDTA and kept on ice until centrifugation.
# Plasma preparation and storage: Certifuged at 4 C at 3,000× for 5 mm. Stored in a freezer until analysed.
# Pharmacokinetics package PKSolver2.0™ has been validated against WinNonLin™ as a tool for non-GLP studies and was used to process the pharmacokinetic data.
# For each route, the average data were processed with non-compartmental, one compartment, and two compartment models. The models were assessed for goodness of fit and the accuracy of the model to assess the biphasic data, with either a) no weighting, b) 1/concentration observed, or c) 1/concentration observed squared. 1/concentration predicted, and 1/concentration predicted squared weightings were also assessed for best fit. […] The zeros were averaged with the 71.5 value for a resulting average of 23.8. For the In Group 2 (PO Gavage) subject 3 experienced 30 mL of emesis, so the dose assigned to that subject was 7.46. In all cases, the subjects were modelled individually, and the individual PK parameters were averaged to provide final parameters.
# For group 1 (intravenous) the final model selected was a two compartment model with 1/concentration observed squared weighting.
# For group 2 (oral gavage) the final model was a two compartment extravascular model with 1/concentration predicted squared weighting.
# For group 3 (oral capsule) the final model was a one compartment extravascular model with a lag time and no weighting. […] The body weight of each animal was used to assign a mg/kg dose to each individual. Subject 1 was dosed at 7.69 mg/kg. Subject 2 was 6.94 mg/kg, and Subject 3 was 6.99 mg/kg.
# [1] = iv, 3 mg/kg, Group 1: IV 3 mg/kg, Average
# [2] = iv, 3 mg/kg, Group 1: IV 3 mg/kg, Subject 1
# [3] = iv, 3 mg/kg, Group 1: IV 3 mg/kg, Subject 2
# [4] = iv, 3 mg/kg, Group 1: IV 3 mg/kg, Subject 3
# [5] = iv, 3 mg/kg, Intravenous - 3 mg/kg, Average
# [6] = iv, 3 mg/kg, Intravenous - 3 mg/kg, Subj1
# [7] = iv, 3 mg/kg, Intravenous - 3 mg/kg, Subj2
# [8] = iv, 3 mg/kg, Intravenous - 3 mg/kg, Subj3
# [9] = oral, 7 mg/kg, Group 3: PO Capsule 7 mg/kg, Subject 1
# [10] = oral, 7 mg/kg, Group 3: PO Capsule 7 mg/kg, Subject 3
# [11] = oral, 7 mg/kg, Group 3: PO Capsule 7 mg/kg, Average
# [12] = oral, 7 mg/kg, Group 3: PO Capsule 7 mg/kg, Subject 2
compound,measurement,setting,value
CC(C)(O)c1nc2ccccc2cc1N [I-1],AUC/Dose,"100 mg Capsule, average dose 7.2 mg/kg, Average",1139 ng·h/mL/mg/kg
same,AUC/Dose,"100 mg Capsule, average dose 7.2 mg/kg, Subj1",955 ng·h/mL/mg/kg
same,AUC/Dose,"100 mg Capsule, average dose 7.2 mg/kg, Subj2",809 ng·h/mL/mg/kg
same,AUC/Dose,"100 mg Capsule, average dose 7.2 mg/kg, Subj3",1653 ng·h/mL/mg/kg
same,AUC/Dose,"Intravenous - 3 mg/kg, Average",1379
same,AUC/Dose,"Intravenous - 3 mg/kg, Subj1",1361
same,AUC/Dose,"Intravenous - 3 mg/kg, Subj2",1520
same,AUC/Dose,"Intravenous - 3 mg/kg, Subj3",1256
same,AUC/Dose,"Oral Gavage 0.5% Methylcellulose 10 mg/kg, Average",1038 ng·h/mL/mg/kg
same,AUC/Dose,"Oral Gavage 0.5% Methylcellulose 10 mg/kg, Subj1",1121 ng·h/mL/mg/kg
same,AUC/Dose,"Oral Gavage 0.5% Methylcellulose 10 mg/kg, Subj2",1010 ng·h/mL/mg/kg
same,AUC/Dose,"Oral Gavage 0.5% Methylcellulose 10 mg/kg, Subj3 (dose assigned 7.46 after emesis)",982 ng·h/mL/mg/kg
same,concentration at 0.083 h,[1],5080 ng/mL
same,concentration at 0.083 h,[2],4910 ng/mL
same,concentration at 0.083 h,[3],4900 ng/mL
same,concentration at 0.083 h,[4],5430 ng/mL
same,concentration at 0.25 h,[1],2410 ng/mL
same,concentration at 0.25 h,[2],2780 ng/mL
same,concentration at 0.25 h,[3],2300 ng/mL
same,concentration at 0.25 h,[4],2150 ng/mL
same,concentration at 0.5 h,[1],1660 ng/mL
same,concentration at 0.5 h,[2],1720 ng/mL
same,concentration at 0.5 h,[3],1700 ng/mL
same,concentration at 0.5 h,[4],1570 ng/mL
same,concentration at 1 h,[1],951 ng/mL
same,concentration at 1 h,[2],857 ng/mL
same,concentration at 1 h,[3],908 ng/mL
same,concentration at 1 h,[4],1090 ng/mL
same,concentration at 2 h,[1],548 ng/mL
same,concentration at 2 h,[2],436 ng/mL
same,concentration at 2 h,[3],766 ng/mL
same,concentration at 2 h,[4],443 ng/mL
same,concentration at 4 h,[1],250 ng/mL
same,concentration at 4 h,[2],259 ng/mL
same,concentration at 4 h,[3],287 ng/mL
same,concentration at 4 h,[4],203 ng/mL
same,concentration at 8 h,[1],42.5 ng/mL
same,concentration at 8 h,[2],49 ng/mL
same,concentration at 8 h,[3],55.4 ng/mL
same,concentration at 8 h,[4],23.1 ng/mL
same,concentration at 12 h,[1],15.5 ng/mL
same,concentration at 12 h,[2],23.9 ng/mL
same,concentration at 12 h,[3],17 ng/mL
same,concentration at 12 h,[4],5.5 ng/mL
same,AUC(0-inf),[5],4140 ng·h/mL
same,AUC(0-t),[5],4100 ng·h/mL
same,C0,[5],6720 ng/mL
same,clearance,[5],12.2 mL/min/kg
same,half-life,[5],1.82 h
same,Vd,[5],1.39 L/kg
same,AUC(0-inf),[6],4080 ng·h/mL
same,AUC(0-t),[6],4030 ng·h/mL
same,C0,[6],5600 ng/mL
same,clearance,[6],12.2 mL/min/kg
same,half-life,[6],2.2 h
same,Vd,[6],1.51 L/kg
same,AUC(0-inf),[7],4560 ng·h/mL
same,AUC(0-t),[7],4520 ng·h/mL
same,C0,[7],6670 ng/mL
same,clearance,[7],11 mL/min/kg
same,half-life,[7],1.82 h
same,Vd,[7],1.4 L/kg
same,AUC(0-inf),[8],3770 ng·h/mL
same,AUC(0-t),[8],3760 ng·h/mL
same,C0,[8],7890 ng/mL
same,clearance,[8],13.3 mL/min/kg
same,half-life,[8],1.44 h
same,Vd,[8],1.25 L/kg
same,concentration at 0.25 h,[9],0 ng/mL
same,concentration at 0.25 h,[10],0 ng/mL
same,concentration at 0.5 h,[11],97.4 ng/mL
same,concentration at 0.5 h,[9],1.1 ng/mL
same,concentration at 0.5 h,[12],290 ng/mL
same,concentration at 0.5 h,[10],1 ng/mL
same,concentration at 1 h,[11],137 ng/mL
same,concentration at 1 h,[9],24 ng/mL
same,concentration at 1 h,[12],254 ng/mL
same,concentration at 1 h,[10],134 ng/mL
same,concentration at 2 h,[11],2350 ng/mL
same,concentration at 2 h,[9],1740 ng/mL
same,concentration at 2 h,[12],1320 ng/mL
same,concentration at 2 h,[10],3990 ng/mL
same,concentration at 4 h,[11],985 ng/mL
